Reference: ChEMBL document CHEMBL1909046, “DrugMatrix in vitro pharmacology data”

Tests used:
Cytochrome P450 1A2 = biological target: T1, Cytochrome P450 1A2 (Homo sapiens, UniProt P05177)
T1 sequence (P05177 whole entry): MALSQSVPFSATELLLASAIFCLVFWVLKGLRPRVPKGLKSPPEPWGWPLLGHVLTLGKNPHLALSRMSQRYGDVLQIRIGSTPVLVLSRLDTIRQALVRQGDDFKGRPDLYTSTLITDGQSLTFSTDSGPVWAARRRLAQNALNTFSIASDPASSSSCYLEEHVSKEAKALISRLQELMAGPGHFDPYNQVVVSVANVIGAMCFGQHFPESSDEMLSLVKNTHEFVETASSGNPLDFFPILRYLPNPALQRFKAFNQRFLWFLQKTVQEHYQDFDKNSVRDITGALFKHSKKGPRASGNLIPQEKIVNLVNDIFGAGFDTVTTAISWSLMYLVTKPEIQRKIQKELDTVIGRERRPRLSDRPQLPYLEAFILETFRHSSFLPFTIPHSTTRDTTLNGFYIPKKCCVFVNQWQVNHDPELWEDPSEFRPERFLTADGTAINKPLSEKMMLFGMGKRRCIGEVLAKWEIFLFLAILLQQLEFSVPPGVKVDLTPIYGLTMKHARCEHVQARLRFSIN

Cytochrome P450 2C19 = Cytochrome P450 2C19 (Homo sapiens, UniProt P33261)
Cytochrome P450 2D6 = Cytochrome P450 2D6 (Homo sapiens, UniProt P10635)
Androgen receptor = biological target: T2, Androgen receptor (Rattus norvegicus, UniProt P15207)
T2 sequence (P15207 whole entry): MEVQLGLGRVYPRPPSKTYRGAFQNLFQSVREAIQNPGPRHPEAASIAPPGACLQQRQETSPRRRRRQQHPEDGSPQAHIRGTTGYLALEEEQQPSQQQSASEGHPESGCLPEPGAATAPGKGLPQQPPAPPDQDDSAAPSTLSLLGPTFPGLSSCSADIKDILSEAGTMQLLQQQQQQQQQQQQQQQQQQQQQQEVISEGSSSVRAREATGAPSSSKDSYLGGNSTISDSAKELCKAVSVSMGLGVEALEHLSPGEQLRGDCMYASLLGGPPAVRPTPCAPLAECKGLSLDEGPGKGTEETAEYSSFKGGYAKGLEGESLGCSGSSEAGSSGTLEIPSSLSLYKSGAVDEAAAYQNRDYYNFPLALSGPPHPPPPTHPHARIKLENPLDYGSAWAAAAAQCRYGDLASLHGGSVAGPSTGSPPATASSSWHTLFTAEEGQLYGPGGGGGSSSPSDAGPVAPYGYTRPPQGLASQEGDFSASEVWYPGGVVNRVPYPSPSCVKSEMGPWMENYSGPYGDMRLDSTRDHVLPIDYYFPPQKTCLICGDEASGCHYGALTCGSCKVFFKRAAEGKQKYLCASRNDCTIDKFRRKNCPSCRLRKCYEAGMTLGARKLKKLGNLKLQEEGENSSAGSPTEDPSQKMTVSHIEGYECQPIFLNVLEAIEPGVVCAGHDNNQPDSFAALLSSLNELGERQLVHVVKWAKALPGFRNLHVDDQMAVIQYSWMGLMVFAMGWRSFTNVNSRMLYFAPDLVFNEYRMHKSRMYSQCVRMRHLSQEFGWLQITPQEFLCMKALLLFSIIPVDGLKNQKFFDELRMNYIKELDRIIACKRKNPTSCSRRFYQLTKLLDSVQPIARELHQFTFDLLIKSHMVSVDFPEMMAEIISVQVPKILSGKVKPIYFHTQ

[1] = biological target: Voltage-gated inwardly rectifying potassium channel KCNH2 (Homo sapiens, UniProt Q12809)
Cytochrome P450 2C9 = Cytochrome P450 2C9 (Homo sapiens, UniProt P11712)
Cytochrome P450 2C9, sequence (P11712 whole entry): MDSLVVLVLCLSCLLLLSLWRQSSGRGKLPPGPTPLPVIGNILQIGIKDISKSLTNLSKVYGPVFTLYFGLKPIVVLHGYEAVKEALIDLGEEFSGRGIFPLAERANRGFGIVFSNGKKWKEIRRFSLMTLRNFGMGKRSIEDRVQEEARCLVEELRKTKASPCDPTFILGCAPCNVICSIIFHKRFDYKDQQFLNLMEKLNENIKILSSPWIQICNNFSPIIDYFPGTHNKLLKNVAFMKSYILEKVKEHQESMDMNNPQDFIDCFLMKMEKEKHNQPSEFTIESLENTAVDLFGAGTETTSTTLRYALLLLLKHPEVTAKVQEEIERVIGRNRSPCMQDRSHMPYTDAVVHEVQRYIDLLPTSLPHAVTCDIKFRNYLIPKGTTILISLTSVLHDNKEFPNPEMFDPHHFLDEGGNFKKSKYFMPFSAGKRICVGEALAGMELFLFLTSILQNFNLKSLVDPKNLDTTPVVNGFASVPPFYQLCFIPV

Cytochrome P450 2D6, sequence (P10635 whole entry): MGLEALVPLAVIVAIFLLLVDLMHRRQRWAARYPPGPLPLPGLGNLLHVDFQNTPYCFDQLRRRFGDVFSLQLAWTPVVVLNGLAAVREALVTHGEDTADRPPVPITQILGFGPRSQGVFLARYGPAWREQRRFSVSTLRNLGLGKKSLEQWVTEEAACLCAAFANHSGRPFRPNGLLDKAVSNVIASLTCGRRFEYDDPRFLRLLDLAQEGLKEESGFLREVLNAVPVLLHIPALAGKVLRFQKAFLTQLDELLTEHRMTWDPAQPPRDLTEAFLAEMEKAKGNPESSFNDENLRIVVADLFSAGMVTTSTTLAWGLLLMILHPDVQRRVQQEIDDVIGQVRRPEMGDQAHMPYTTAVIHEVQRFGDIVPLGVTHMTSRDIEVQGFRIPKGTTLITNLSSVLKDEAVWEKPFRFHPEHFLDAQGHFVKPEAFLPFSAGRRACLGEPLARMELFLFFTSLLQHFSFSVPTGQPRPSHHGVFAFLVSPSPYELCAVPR
Cytochrome P450 2C19, sequence (P33261 whole entry): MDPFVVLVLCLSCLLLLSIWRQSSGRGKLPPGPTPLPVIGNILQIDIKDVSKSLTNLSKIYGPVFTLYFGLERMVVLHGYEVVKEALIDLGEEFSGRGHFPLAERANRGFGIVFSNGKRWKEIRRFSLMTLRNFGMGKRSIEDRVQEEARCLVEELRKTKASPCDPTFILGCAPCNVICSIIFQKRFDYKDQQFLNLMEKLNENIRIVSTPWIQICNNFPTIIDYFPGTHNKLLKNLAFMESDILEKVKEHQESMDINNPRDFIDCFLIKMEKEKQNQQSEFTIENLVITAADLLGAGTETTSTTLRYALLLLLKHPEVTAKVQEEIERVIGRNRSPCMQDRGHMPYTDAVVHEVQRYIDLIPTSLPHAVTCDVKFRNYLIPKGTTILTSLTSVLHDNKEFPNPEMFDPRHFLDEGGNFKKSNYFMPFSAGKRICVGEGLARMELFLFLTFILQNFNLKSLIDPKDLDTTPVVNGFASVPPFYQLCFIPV
Voltage-gated inwardly rectifying potassium channel KCNH2, sequence (Q12809 whole entry): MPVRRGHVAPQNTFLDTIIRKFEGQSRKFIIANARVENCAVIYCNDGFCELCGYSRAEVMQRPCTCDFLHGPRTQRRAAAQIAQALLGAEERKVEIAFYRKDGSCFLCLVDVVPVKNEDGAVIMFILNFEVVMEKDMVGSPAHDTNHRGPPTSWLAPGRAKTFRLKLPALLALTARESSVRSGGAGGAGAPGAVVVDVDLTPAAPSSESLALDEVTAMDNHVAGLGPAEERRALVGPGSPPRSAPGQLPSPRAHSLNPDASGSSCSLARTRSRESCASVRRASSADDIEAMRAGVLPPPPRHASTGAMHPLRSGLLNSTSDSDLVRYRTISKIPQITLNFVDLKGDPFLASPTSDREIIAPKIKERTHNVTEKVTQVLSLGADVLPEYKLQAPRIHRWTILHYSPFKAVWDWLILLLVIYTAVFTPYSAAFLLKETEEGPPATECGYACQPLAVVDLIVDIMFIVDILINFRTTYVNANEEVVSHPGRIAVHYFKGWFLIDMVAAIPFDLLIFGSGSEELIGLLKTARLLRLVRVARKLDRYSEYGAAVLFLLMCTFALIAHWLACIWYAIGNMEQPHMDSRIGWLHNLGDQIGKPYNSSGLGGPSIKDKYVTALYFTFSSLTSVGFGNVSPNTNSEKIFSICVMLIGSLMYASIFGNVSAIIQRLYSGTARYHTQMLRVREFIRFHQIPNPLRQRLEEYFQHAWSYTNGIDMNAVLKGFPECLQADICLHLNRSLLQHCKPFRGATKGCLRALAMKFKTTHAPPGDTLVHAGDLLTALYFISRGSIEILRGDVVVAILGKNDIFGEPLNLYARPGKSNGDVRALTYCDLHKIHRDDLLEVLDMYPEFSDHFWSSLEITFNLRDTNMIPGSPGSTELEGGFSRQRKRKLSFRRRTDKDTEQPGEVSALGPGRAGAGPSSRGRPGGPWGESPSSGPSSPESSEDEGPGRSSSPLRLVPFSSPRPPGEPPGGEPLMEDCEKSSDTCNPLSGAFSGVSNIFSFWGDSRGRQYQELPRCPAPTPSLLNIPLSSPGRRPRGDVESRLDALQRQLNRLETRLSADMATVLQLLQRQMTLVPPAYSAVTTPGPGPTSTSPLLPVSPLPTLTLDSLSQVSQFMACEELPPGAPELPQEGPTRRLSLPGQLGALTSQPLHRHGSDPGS

Clc1ccc(COC(Cn2ccnc2)c2ccc(Cl)cc2Cl)cc1 (stereo not given) [ECONAZOLE]
IC50 (Cytochrome P450 1A2): 0.3 µM
IC50 (Cytochrome P450 2C19): 0.04 µM
IC50 (Cytochrome P450 2D6): 0.4 µM

CCN(CC)CCOc1ccc(/C(=C(/Cl)c2ccccc2)c2ccccc2)cc1 [ENCLOMIPHENE]
IC50 (Cytochrome P450 2D6): 10 µM

CO[C@@H]1[C@@H](OC)[C@H](C)[C@@](O)(CC(=O)O)O[C@H]1[C@H](C)[C@H]1O[C@@]2(CC[C@@](C)([C@H]3CC[C@@](C)([C@@H]4O[C@@H]([C@H]5O[C@](C)(O)[C@H](C)C[C@@H]5C)C[C@@H]4O[C@@H]4C[C@H](OC)[C@@H](OC)[C@H](C)O4)O3)O2)C[C@H](O)[C@H]1C [MADURAMICIN ACID]
IC50 (Cytochrome P450 2D6): 1 µM

C[C@H]1C[C@@H]2[C@H]([C@@H](O)C[C@@]3(C)[C@H]2CC[C@]3(O)C(=O)CO)[C@@]2(C)C=CC(=O)C=C12 [METHYLPREDNISOLONE]
IC50 (Androgen receptor): 26.7 µM
Ki (Androgen receptor): 17.8 µM

CN[C@H]1CC[C@@H](c2ccc(Cl)c(Cl)c2)c2ccccc21 [SERTRALINE]
IC50 (Cytochrome P450 2C19): 1 µM
IC50 [1]: 8.32 µM
Ki [1]: 6.81 µM

NC(=O)N1C(=O)/C(=C(\O)c2cccs2)c2cc(Cl)ccc21 [TENIDAP]
IC50 (Cytochrome P450 1A2): 1 µM
IC50 (Cytochrome P450 2C9): 0.7 µM

CN(C/C=C/C#CC(C)(C)C)Cc1cccc2ccccc12 [TERBINAFINE]
IC50 (Cytochrome P450 2D6): 0.2 µM

O=C(Nc1ccc(Br)cc1)c1cc(Br)cc(Br)c1O [TRIBROMSALAN]
IC50 (Cytochrome P450 1A2): 2 µM
IC50 (Cytochrome P450 2C9): 2 µM
